The source of these data is patent US8969325B2, “TRPV1 antagonists” (AbbVie Inc., priority 2011, dated 2015).

Each structure is given as a SMILES string.

For test [1], the target named is T1, human TRPV1 (Homo sapiens (Human), UniProt Q8NER1). The test is described as follows: Capsaicin Activation Assay (intracellular Ca2+, FLIPR). The class given is cell-based. Particulars: recombinant HEK293 cells expressing hTRPV1, 50 nM capsaicin. In short, it runs like this:
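Stably transfected HEK293 cells expressing human TRPV1 cDNA, plated the day before in poly-D-lysine plates. Compounds serially diluted from 10 mM DMSO stocks; intracellular Ca2+ fluorescence read on FLIPR at 1 to 5 second intervals.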

The target of test [2] is T1, human TRPV1. Kind of test: Acid Activation Assay (pH 5.0, intracellular Ca2+, FLIPR). The class given is cell-based. The note with it: percentage of the maximal pH 5.0-induced response remaining; recombinant HEK293 hTRPV1 cells; maximum concentration tested 37.5 μM. The essentials:
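HEK293 cells stably expressing recombinant hTRPV1, loaded with Calcium-4 dye 90-120 min at 25° C. Compounds added over a 12-point half-log range (top 37.5 μM), then pH 5.0 DPBS/MES challenge after 3 min; FLIPR peak fluorescence over baseline given as % of maximal pH 5.0 response.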

T1 sequence (Q8NER1 whole entry): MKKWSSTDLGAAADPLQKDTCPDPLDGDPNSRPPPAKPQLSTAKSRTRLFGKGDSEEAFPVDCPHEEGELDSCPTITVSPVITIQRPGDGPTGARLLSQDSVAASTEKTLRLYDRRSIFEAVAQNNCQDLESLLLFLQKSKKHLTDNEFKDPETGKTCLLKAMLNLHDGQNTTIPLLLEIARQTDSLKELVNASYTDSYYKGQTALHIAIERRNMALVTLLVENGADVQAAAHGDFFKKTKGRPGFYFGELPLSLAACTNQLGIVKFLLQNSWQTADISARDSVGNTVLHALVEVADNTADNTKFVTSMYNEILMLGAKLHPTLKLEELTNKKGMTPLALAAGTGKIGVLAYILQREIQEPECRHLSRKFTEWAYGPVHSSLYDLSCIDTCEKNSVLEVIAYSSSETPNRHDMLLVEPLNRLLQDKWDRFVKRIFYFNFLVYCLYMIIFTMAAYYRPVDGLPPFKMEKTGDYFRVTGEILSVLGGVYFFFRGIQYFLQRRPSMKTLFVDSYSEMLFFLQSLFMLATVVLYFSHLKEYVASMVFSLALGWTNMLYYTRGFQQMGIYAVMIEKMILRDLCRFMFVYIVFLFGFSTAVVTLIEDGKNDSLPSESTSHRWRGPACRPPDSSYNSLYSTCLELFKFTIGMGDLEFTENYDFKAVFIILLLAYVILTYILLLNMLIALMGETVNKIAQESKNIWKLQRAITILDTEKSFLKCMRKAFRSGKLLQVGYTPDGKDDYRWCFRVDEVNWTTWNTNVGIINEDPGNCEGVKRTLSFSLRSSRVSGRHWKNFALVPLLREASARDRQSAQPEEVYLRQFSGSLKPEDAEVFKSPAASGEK

What is called IC50 is the point on the concentration scale where inhibition reaches its midpoint. On to `CCC1(CC)C[C@@H](NC(=O)Nc2ccc3c(c2)NC(=O)CO3)c2ccc(Cl)cc2O1` [Example 104, 1-[(4R)-7-chloro-2,2-diethyl-3,4-dihydro-2H-chromen-4-yl]-3-(3-oxo-3,4-dihydro-2H-1,4-benzoxazin-6-yl)urea], for which the IC50 in test [1] came out at 200 nM. For the same compound, the “human TRPV1 H^+ (max % remain)” value in test [2] turned out to be 80%.
On the same counts, the results for `CN1C(=O)NCc2c(NC(=O)N[C@@H]3CC(CF)(CF)Oc4cc(C(F)(F)F)ccc43)cccc21` [Example 146, 1-[(4R)-2,2-bis(fluoromethyl)-7-(trifluoromethyl)-3,4-dihydro-2H-chromen-4-yl]-3-(1-methyl-2-oxo-1,2,3,4-tetrahydroquinazolin-5-yl)urea] are 38 nM and 15%.
For `CCCC1(CCC)C[C@@H](NC(=O)Nc2ccc3c(c2)NC(=O)CC3)c2cccc(F)c2O1` [Example 230, 1-[(4R)-8-fluoro-2,2-dipropyl-3,4-dihydro-2H-chromen-4-yl]-3-(2-oxo-1,2,3,4-tetrahydroquinolin-7-yl)urea], in that order: 38 nM and 24%.
On the same counts, the results for `CC1(C)C[C@@H](NC(=O)Nc2ccc3c(c2)NC(=O)CO3)c2ccc(Cl)c(F)c2O1` [Example 325, 1-[(4R)-7-chloro-8-fluoro-2,2-dimethyl-3,4-dihydro-2H-chromen-4-yl]-3-(3-oxo-3,4-dihydro-2H-1,4-benzoxazin-6-yl)urea] are 21 nM and 83%.
Regarding `CN1Cc2ccc(NC(=O)N[C@@H]3CC4(CCC4)Oc4ccc(F)cc43)cc2NC1=O` [Example 188, 1-[(4R)-6-fluoro-3,4-dihydrospiro[chromene-2,1′-cyclobutan]-4-yl]-3-(3-methyl-2-oxo-1,2,3,4-tetrahydroquinazolin-7-yl)urea], in test [1], the IC50 came out at 290 nM. Also, the “human TRPV1 H^+ (max % remain)” value in test [2] is 46%.
Consider `CCC1(CC)C[C@@H](NC(=O)Nc2ccc3c(c2)NC(=O)CC3)c2ccc(Cl)cc2O1` [Example 225, 1-[(4R)-7-chloro-2,2-diethyl-3,4-dihydro-2H-chromen-4-yl]-3-(2-oxo-1,2,3,4-tetrahydroquinolin-7-yl)urea], for which the IC50 in test [1] stood at 130 nM. Besides, the “human TRPV1 H^+ (max % remain)” value in test [2] stood at 12%.
For `COCC1(COC)C[C@@H](NC(=O)Nc2ccc3c(c2)N(C)C(=O)CC3)c2cc(F)ccc2O1` [Example 279, 1-[(4R)-6-fluoro-2,2-bis(methoxymethyl)-3,4-dihydro-2H-chromen-4-yl]-3-(1-methyl-2-oxo-1,2,3,4-tetrahydroquinolin-7-yl)urea], in that order: 510 nM and 50%.
On the same counts, the results for `CC1(C)C[C@@H](NC(=O)Nc2ccc3c(c2)NC(=O)CO3)c2cc(F)ccc2O1` [Example 113, 1-[(4R)-6-fluoro-2,2-dimethyl-3,4-dihydro-2H-chromen-4-yl]-3-(3-oxo-3,4-dihydro-2H-1,4-benzoxazin-6-yl)urea] are 770 nM and 102%.
For the compound `C[C@@]1(C(F)(F)F)C[C@@H](NC(=O)Nc2ccc3c(c2)NC(=O)CC3)c2ccccc2O1` [Example 245, 1-[(2S,4R)-2-methyl-2-(trifluoromethyl)-3,4-dihydro-2H-chromen-4-yl]-3-(2-oxo-1,2,3,4-tetrahydroquinolin-7-yl)urea], in test [1], the IC50 is 280 nM. The “human TRPV1 H^+ (max % remain)” value in test [2] is recorded as 28%.
On the same counts, the results for `CN1C(=O)NCc2c(NC(=O)N[C@@H]3CC(C)(C)Oc4cc(F)ccc43)cccc21` [Example 1, 1-[(4R)-7-fluoro-2,2-dimethyl-3,4-dihydro-2H-chromen-4-yl]-3-(1-methyl-2-oxo-1,2,3,4-tetrahydroquinazolin-5-yl)urea] are 10 nM and 25%.
On the same counts, the results for `O=C1COc2ccc(NC(=O)N[C@@H]3CCc4cc(Cl)ccc43)cc2N1` [Example 119, 1-[(1R)-5-chloro-2,3-dihydro-1H-inden-1-yl]-3-(3-oxo-3,4-dihydro-2H-1,4-benzoxazin-6-yl)urea] are 170 nM and 110%.
On to `Cn1c(=O)ccc2c(NC(=O)N[C@@H]3CC(CF)(CF)Oc4c(F)cc(F)cc43)cccc21` [Example 72, 1-[(4R)-6,8-difluoro-2,2-bis(fluoromethyl)-3,4-dihydro-2H-chromen-4-yl]-3-(1-methyl-2-oxo-1,2-dihydroquinolin-5-yl)urea], for which the IC50 in test [1] was 54 nM. For the same compound, in test [2], the “human TRPV1 H^+ (max % remain)” value came to 36%.
For `CN1C(=O)NCc2c(NC(=O)N[C@@H]3CC4(CCCC4)Oc4ccccc43)cccc21` [Example 15, 1-[(4R)-3,4-dihydrospiro[chromene-2,1′-cyclopentan]-4-yl]-3-(1-methyl-2-oxo-1,2,3,4-tetrahydroquinazolin-5-yl)urea], in that order: 21 nM and 40%.
On the same counts, the results for `CCC1(CC)C[C@@H](NC(=O)Nc2cccc3c2CNC(=O)N3C)c2ccc(C(F)(F)F)cc2O1` [Example 144, 1-[(4R)-2,2-diethyl-7-(trifluoromethyl)-3,4-dihydro-2H-chromen-4-yl]-3-(1-methyl-2-oxo-1,2,3,4-tetrahydroquinazolin-5-yl)urea] are 130 nM and 5%.
For `O=C1COc2ccc(NC(=O)N[C@@H]3CC4(CCC4)Oc4ccc(F)cc43)cc2N1` [Example 108, 1-[(4R)-6-fluoro-3,4-dihydrospiro[chromene-2,1′-cyclobutan]-4-yl]-3-(3-oxo-3,4-dihydro-2H-1,4-benzoxazin-6-yl)urea], in that order: 240 nM and 104%.
For `O=C1COc2ccc(NC(=O)N[C@@H]3CCOc4c3cccc4C(F)(F)F)cc2N1` [Example 120, 1-(3-oxo-3,4-dihydro-2H-1,4-benzoxazin-6-yl)-3-[(4R)-8-(trifluoromethyl)-3,4-dihydro-2H-chromen-4-yl]urea], the IC50 in test [1] was 200 nM. The “human TRPV1 H^+ (max % remain)” value in test [2] was 103%.
On to `CN1Cc2ccc(NC(=O)N[C@H]3CCOc4cc(OC(F)(F)F)ccc43)cc2NC1=O` [Example 194, 1-(3-methyl-2-oxo-1,2,3,4-tetrahydroquinazolin-7-yl)-3-[(4S)-7-(trifluoromethoxy)-3,4-dihydro-2H-chromen-4-yl]urea], for which the IC50 in test [1] was 1800 nM. Moreover, the “human TRPV1 H^+ (max % remain)” value in test [2] is listed as 52%.
For `C[C@@]1(CF)C[C@@H](NC(=O)Nc2ccc3c(c2)NC(=O)N(CCO)C3)c2ccc(Cl)cc2O1` [Example 59, 1-[(2S,4R)-7-chloro-2-(fluoromethyl)-2-methyl-3,4-dihydro-2H-chromen-4-yl]-3-[3-(2-hydroxyethyl)-2-oxo-1,2,3,4-tetrahydroquinazolin-7-yl]urea], in that order: 1500 nM and 2%.
In the case of `CN1C(=O)CCc2ccc(NC(=O)N[C@@H]3CCOc4ccc(F)cc43)cc21` [Example 282, 1-[(4R)-6-fluoro-3,4-dihydro-2H-chromen-4-yl]-3-(1-methyl-2-oxo-1,2,3,4-tetrahydroquinolin-7-yl)urea], the IC50 in test [1] is 410 nM. In addition, the “human TRPV1 H^+ (max % remain)” value in test [2] was determined as 81%.
On the same counts, the results for `Cn1c(=O)ccc2c(NC(=O)N[C@@H]3C[C@](C)(CF)Oc4cc(Cl)ccc43)cccc21` [Example 40, 1-[(2R,4R)-7-chloro-2-(fluoromethyl)-2-methyl-3,4-dihydro-2H-chromen-4-yl]-3-(1-methyl-2-oxo-1,2-dihydroquinolin-5-yl)urea] are 22 nM and 38%.
With `C[C@]1(C(F)F)C[C@@H](NC(=O)Nc2ccc3c(c2)NC(=O)CC3)c2ccccc2O1` [Example 249, 1-[(2R,4R)-2-(difluoromethyl)-2-methyl-3,4-dihydro-2H-chromen-4-yl]-3-(2-oxo-1,2,3,4-tetrahydroquinolin-7-yl)urea], the IC50 in test [1] is 110 nM. Moreover, the “human TRPV1 H^+ (max % remain)” value in test [2] is on record as 28%.
On the same counts, the results for `CCCC1(CCC)C[C@@H](NC(=O)Nc2cccc3c2CNC(=O)N3C)c2cccc(F)c2O1` [Example 156, 1-[(4R)-8-fluoro-2,2-dipropyl-3,4-dihydro-2H-chromen-4-yl]-3-(1-methyl-2-oxo-1,2,3,4-tetrahydroquinazolin-5-yl)urea] are 190 nM and 67%.
For `CCC1(CC)C[C@@H](NC(=O)Nc2ccc3c(c2)N(C)C(=O)CC3)c2cccc(F)c2O1` [Example 259, 1-[(4R)-2,2-diethyl-8-fluoro-3,4-dihydro-2H-chromen-4-yl]-3-(1-methyl-2-oxo-1,2,3,4-tetrahydroquinolin-7-yl)urea], the IC50 in test [1] is 4700 nM. Also, the “human TRPV1 H^+ (max % remain)” value in test [2] was 89%.
On the same counts, the results for `Cn1c(=O)ccc2c(NC(=O)N[C@@H]3CC4(CCCC4)Oc4ccccc43)cccc21` [Example 65, 1-[(4R)-3,4-dihydrospiro[chromene-2,1′-cyclopentan]-4-yl]-3-(1-methyl-2-oxo-1,2-dihydroquinolin-5-yl)urea] are 28 nM and 37%.
Consider `O=C1CCc2ccc(NC(=O)N[C@@H]3CC(CF)(CF)Oc4cc(OC(F)(F)F)ccc43)cc2N1` [Example 211, 1-[(4R)-2,2-bis(fluoromethyl)-7-(trifluoromethoxy)-3,4-dihydro-2H-chromen-4-yl]-3-(2-oxo-1,2,3,4-tetrahydroquinolin-7-yl)urea], for which the IC50 in test [1] worked out at 20 nM. Further, the “human TRPV1 H^+ (max % remain)” value in test [2] is reported as 55%.
For `CN1C(=O)CCc2ccc(NC(=O)N[C@@H]3CC(C)(C)Oc4c3ccc(F)c4F)cc21` [Example 299, 1-[(4R)-7,8-difluoro-2,2-dimethyl-3,4-dihydro-2H-chromen-4-yl]-3-(1-methyl-2-oxo-1,2,3,4-tetrahydroquinolin-7-yl)urea], in that order: 54 nM and 84%.
